Source: patent US20060073541A1, “Lipophilic dyes and their application for detection of myelin” (priority 2004, published 2006)

Experiments:
myelin [1] = assay: Detection of myelin in combination with antibodies (anti-GFAP) and DAPI on mouse brain cryosection
Description: To test whether use of Compound 1 interrupts antibody binding, Compound 1 was used in conjunction with anti-GFAP on mouse brain sections. A 16 μm mouse brain cryosection, cross-section through the rostral mesencephalon, was rehydrated and permeabilized in PBT (0.05 M phosphate buffered saline with 0.2% Triton X-100 and 0.2% BSA) for 20 minutes, the washed for 30 minutes with Image-iT FX Signal Enhancer (Molecular Probes, Inc.) to block non-specific Alexa Fluor dye binding to myelin. After washing in PBT, the section was blocked for 1 hour in 5% normal goat serum/0.2% Triton X-100/3% BSA, then incubated overnight at 4° C. in 5 μg/ml mouse anti-GFAP (glial fibrillary acidic protein) from Molecular Probes (A21282) in blocking buffer. Sections were washed well in PBT, then incubated in Alexa Fluor 680 goat anti-mouse secondary antibody (A21057, Molecular Probes, Inc.) for 2 hours. After washing in PBT, sections were labeled in 500 nM of Compound 1 for 20 minutes with 0.1 μg/ml DAPI. After a final wash in PBT, sections were mounted in Prolong antifade mountant (Molecular Probes, inc.). Images were collected on a Nikon E800 epifluorescence upright microscope using a Princeton MicroMax cooled CCD digital camera, MetaMorph acquisition software, and Adobe Photoshop image analysis software.

myelin [2] = assay: Myelin staining of mouse brain cryosections, label pattern comparison; conditions: for labeling of myelin (selectivity): 1 μM or 500 nM in PBS; for myelin label pattern / non-specific background labeling / single axon labeling: 16 μm mouse brain cryosections, dyes 500 nM 20 minutes; for myelin label pattern: sagittal and cross sections, anti-MBP 5 μg/ml overnight; for emission wavelength (Em) / excitation wavelength (Ex): dye on labeled mouse brain cryosections
Description: In an exemplary embodiment, the present method stains and detects myelin in brain tissue sections that have been immobilized on a glass slide. In this instance a protocol for labeling brain cryosections comprises: • 1. Rehydrate and/or Permeabilize. Bring tissue sections on slides to room temperature, then rehydrate in either PBS (phosphate-buffered saline, 0.05M, pH 7.4) or PBT (PBS+0.2% Triton X-100) for at least 20 minutes. Permeabilization with Triton X-100 is not necessary for labeling using the present lipophilic dyes, but is likely necessary for any other counterstains or antibodies to be used. • 2. Prepare Label Solution. Prepare the labeling solution by diluting the stock solution 300-fold with PBS to make a final recommended concentration of 500 nM dye. • 3. Label Step. Flood the section with labeling solution and stain for 20 minutes at room temperature. • 4. Wash. When labeling is complete, remove solution, rinse in PBS, and wash 3×10 minutes with PBS. • 5. Counterstaining and Mounting. At this point tissues can be counterstained as necessary, or mounted with an aqueous antifade mounting medium such as ProLong or ProLong Gold reagent.
Use of this antibody allows for specific labeling with which to compare the present lipophilic dyes and chromogenic method label patterns. […] Tissue was sectioned on a cryostat and mounted on Plus slides and stored at −80° C. Upon use, tissue sections were brought to room temperature and rehydrated in PBT (0.5 M phosphate-buffered saline containing 0.2% Triton X-100 and 0.2% BSA) for 30 minutes. Sections were blocked for 1 hour in 5% normal goat serum/3% BSA/PBT, then labeled overnight at 4° using 5 μg/ml rat anti-MBP primary antibody from Chemicon (MAB386). After washing in PBT, tissues were washed in Image-iT FX signal enhancer (136933, Molecular Probes, Inc., Eugene, Oreg.) for 30 minutes, then washed again in PBT. Sections were incubated in Alexa Fluor 488 goat anti-rat secondary antibody (A11006, Molecular Probes, Inc.) for 2 hours, washed in PBT, and mounted in ProLong antifade solution (P7481, Molecular Probes, Inc.). Images were collected on a Nikon E800 epifluorescence upright microscope using a Princeton MicroMax cooled CCD digital camera, MetaMorph acquisition software, and Adobe Photoshop image analysis software (Ex 495/Em 519, FITC Filter Set).
Other than antibody labeling techniques, myelin labeling is traditionally performed using long and complicated chromogenic (non-fluorescent) dye protocols. One of the most common is the Loyez Technique. A more recent, and more specific method is Schmued's Gold Chloride Technique. These two methods were used for comparison to the present dyes. • I. Schmued's Gold Chloride Technique. Based on a method by Laurence C. Schmued [1990. A rapid, sensitive histochemical stain for myelin in frozen brain sections. J. Histochem Cytochem. 38(5): 717-720]. Tissues were rehydrated in PBT for 30 minutes, then labeled for 3.5 hours in 0.2% gold chloride in 0.02 M neutral phosphate buffer with 0.9% sodium chloride. After a water rinse, tissues were post-fixed for 5 minutes in 2.5% sodium thiosulfate, rinsed in running tap water for 30 minutes, and mounted in mowiol. Images were collected using transmitted light on the system outlined in part A of this example. Myelin was labeled a brown-red color. […] Loyez Technique. Adapted from H. C. Cook. 1974. […] London: Butterworths. pp. 161-162. Tissues were rehydrated and permeabilized 30 minutes in PBT, then treated with 4% iron alum overnight at room temperature. After a water wash, tissues were stained overnight in a 10% alcoholic haematoxylin solution with lithium carbonate at room temperature. After two 10-minute water washes, tissues were destained for approximately 20 seconds in 4% iron alum, and washed in water. After a final wash in borax-ferricyanide to colorize the myelin blue-black, tissues were washed in water and mounted in mowiol. Images were scanned as in section B. I. Of this example. […]

myelin [3] = assay: Demyelinated mouse model test: control versus shiverer mouse brain cryosections
Description: To illustrate the use of the present dyes for studying myelin diseases such as multiple sclerosis, adrenoleukodystrophy, Guillain-Barre syndrome, and others, Compound 1 was compared against rat anti-myelin basic protein (anti-MBP) primary antibody on control mouse brains versus shiverer mouse brain. […] Brain tissues were cryosectioned at 16 μm and mounted on PLUS slides. Control and shiverer tissues were treated either with anti-MBP primary and Alexa Fluor 488 goat anti-rat secondary or Compound 1. Tissues treated with the antibody were rehydrated and permeabilized in PBT (0.05 M phosphate buffered saline with 0.2% Triton X-100 and 0.2% bovine serum albumin (BSA)) for 20 minutes, then blocked in 5% normal goat serum/3% BSA/PBT for 1 hour. Tissues were then incubated overnight at 4° C. with 5 μg/mL rat anti-MBP (Chemicon, MAB386) in blocking solution. After washing 3×10 minutes in PBT, they were then incubated for 2 hours with 5 μg/mL Alexa Fluor 488 goat anti-rat secondary at room temperature. After further washing 3×10 minutes in PBT, tissues were counterstained with 0.2 μg/ml DAPI, washed 3×5 minutes in PBT, and mounted with ProLong antifade mounting medium (Invitrogen P36930). Tissues that were labeled with Compound 1 were rehydrated and permeabilized as above, then labeled 20 minutes with 500 nM Compound 1 and 0.2 μg/mL DAPI (together) in PBT. Tissues were washed 3×10 minutes PBT, then mounted as above. Images were collected on a Nikon E800 epifluorescence upright microscope using a Princeton MicroMax cooled CCD digital camera, an Omega XF100-2 FITC filter set, MetaMorph acquisition software, and Adobe Photoshop image analysis software. […] Myelin labeling was negative, as expected, for shiverer mice for both anti-MBP and Compound 1, illustrating that the present dyes work as well as anti-MBP for demyelination determination.

myelin [4] = assay: Myelin staining in combination with NeuroTrace Nissl stains and DAPI on mouse brain cryosections; conditions: 500 nM dye, NeuroTrace Nissl stain 1:300, DAPI
Description: (§1) A 16 μm mouse brain cryosection, cross section through diencephalon, was rehydrated for 20 minutes in PBT (0.5 M phosphate-buffered saline containing 0.2% Triton X-100 and 0.2% BSA). The three dyes were mixed into the final stain solution (in PBS), such that there was a concentration of 500 nM of Compound 1, 1:300 dilution of NeuroTrace Red Nissl Stain, and 0.1 μg/ml DAPI. Sections were labeled in this combination for 20 minutes, then washed well in PBT prior to mounting in Prolong antifade mounting medium (Molecular Probes, Inc.). Images were collected on a Nikon E800 epifluorescence upright microscope using a Princeton MicroMax cooled CCD digital camera, MetaMorph acquisition software, and Adobe Photoshop image analysis software.
as §1, with “(0.5M” for “(0.5 M”, “nM” for “nM of”, “2,” for “1,”
12 μm thick mouse brain cryosections, either cross-sectioned through the mesencephalon or sagittal sections, were rehydrated and permeabilized for 20 minutes in PBT (PBS with 0.2% Triton X-100 and 0.2% BSA) then labeled 30 minutes with 500 nM Compound 4 in PBS. Sections were washed 3×10 minutes with PBT then labeled 20 minutes with NeuroTrace Green Nissl Stain (diluted 1:300 from stock). Sections were washed 3×5 minutes in PBS, labeled 1.5 minutes with 0.2 μg/mL DAPI, washed 3×5 minutes in PBS again, and mounted in Prolong Gold antifade mounting medium. Samples were compared to sections labeled with Compound 1 and Compound 2 as controls. Images were collected on a Nikon E800 epifluorescence upright microscope using a Princeton MicroMax cooled CCD digital camera, MetaMorph acquisition software, and Adobe Photoshop image analysis software.

Row | emission wavelength (Em) (myelin [2]) [nm] | excitation wavelength (Ex) (myelin [2]) [nm] | spectral qualities (myelin [2]; 12 μm mouse brain cryosections) | SMILES | label pattern in conjunction with anti-GFAP (myelin [1]; 500 nM 20 minutes with 0.1 μg/ml DAPI after anti-GFAP / Alexa Fluor 680 secondary, rostral mesencephalon cross-section) | inhibition of staining pattern (myelin [1]; 500 nM dye with anti-GFAP antibody labeling) | labeling of myelin (selectivity) (myelin [2]; 12 μm mouse brain cryosections) | myelin label pattern (myelin [2]) | non-specific background labeling (myelin [2]) | single axon labeling (myelin [2]) | staining brightness compared with anti-MBP (myelin [3]; control mice brain) | myelin labeling in control mice (myelin [3]; control mice brain, 16 μm cryosections, 500 nM dye 20 minutes or 5 μg/mL anti-MBP overnight) | background labeling (myelin [3]; general membrane labeling) | myelin labeling in shiverer mice (myelin [3]; shiverer (demyelinated) mouse brain, 16 μm cryosections) | disruption of labels / compatibility with NeuroTrace Nissl stain and DAPI (myelin [4]) | label pattern in combination with NeuroTrace Nissl stain and DAPI (myelin [4]) | concentration sufficient for labeling with minimal background (myelin [2]; 12 μm mouse brain cryosections, in PBS) [nM]
1 | 594 | 479 |  | CCCCN(CCCC)c1ccc(C=Cc2cc[n+](CCC[N+](CC)(CC)CC)cc2)cc1 [Compound 1] | labeled axon tracts and bundles | no inhibition of staining pattern by either label | selective myelin labeling | specific myelin labeling in expected axon bundles and tracts | some non-specific background labeling was visualized | single axon labeling was not seen | twice as bright | labeled myelin in control mice | slight background labeling | negative | no evidence of disruption of any of the three labels | tracts in the fornix, fornix superior, capsula interna, and striatum | 
2 | 734 | 558 |  | CCCCN(CCCC)c1ccc(C=CC=CC=Cc2cc[n+](CCC[N+](CC)(CC)CC)cc2)cc1 [Compound 2] |  |  | selective myelin labeling | specific myelin labeling in expected axon bundles and tracts | some non-specific background labeling was visualized | single axon labeling was not seen |  |  |  |  | no evidence of disruption of any of the three labels | tracts in the fornix, fornix superior, capsula interna, and striatum | 
3 |  |  | comparable to Compound 2 | CCCCN(CCCC)c1ccc(C=CC=CC=Cc2cc[n+](CCC[N+](C)(C)C)cc2)cc1 [Compound 4] |  |  | highly selective labeling of myelin |  |  |  |  |  |  |  | compatible with NeuroTrace Green Nissl Stain labeling and DAPI labeling | label pattern comparable to the control dyes | 500
